Results taken from PMC11513893, “Discovery of Oral Degraders of the ROS1 Fusion Protein with Potent Activity against Secondary Resistance Mutations” (Journal of Medicinal Chemistry, 2024).
pIC50: −log10 of the molar value. “And” between values parts separate entries of the source, which are not always exact repeats. Equal values may be shown once.

Columns and labels:
ROS1 (L2086F) = ROS1 (L2086F) (Homo sapiens, UniProt P08922, L2086F); assay: Kinase assay; type: biochemical; settings: average of duplicate measurements
EGFR = EGFR (Homo sapiens, UniProt P00533); assay: Degradation assay; type: cell-based; settings: average of duplicate measurements
Description: (§1) However, the degradation selectivity of 9o often contrasts with its kinase binding selectivity as determined in cells treated with 9o where the kinase level was measurable by Western blot analysis. […] For example, FLT3, CHEK2, and FES, all with kinase binding at <10 nM, were only moderately or minimally degraded, if at all (Table 9).

FES = FES (Homo sapiens, UniProt P07332); assay: Degradation assay; type: cell-based; settings: average of duplicate measurements
Description: as §1

FAK/PTK2 [1] = molecular target: T1, FAK/PTK2 (Homo sapiens, UniProt Q05397); assay: Degradation assay; type: cell-based; settings: average of duplicate measurements
T1 sequence (Q05397 whole entry): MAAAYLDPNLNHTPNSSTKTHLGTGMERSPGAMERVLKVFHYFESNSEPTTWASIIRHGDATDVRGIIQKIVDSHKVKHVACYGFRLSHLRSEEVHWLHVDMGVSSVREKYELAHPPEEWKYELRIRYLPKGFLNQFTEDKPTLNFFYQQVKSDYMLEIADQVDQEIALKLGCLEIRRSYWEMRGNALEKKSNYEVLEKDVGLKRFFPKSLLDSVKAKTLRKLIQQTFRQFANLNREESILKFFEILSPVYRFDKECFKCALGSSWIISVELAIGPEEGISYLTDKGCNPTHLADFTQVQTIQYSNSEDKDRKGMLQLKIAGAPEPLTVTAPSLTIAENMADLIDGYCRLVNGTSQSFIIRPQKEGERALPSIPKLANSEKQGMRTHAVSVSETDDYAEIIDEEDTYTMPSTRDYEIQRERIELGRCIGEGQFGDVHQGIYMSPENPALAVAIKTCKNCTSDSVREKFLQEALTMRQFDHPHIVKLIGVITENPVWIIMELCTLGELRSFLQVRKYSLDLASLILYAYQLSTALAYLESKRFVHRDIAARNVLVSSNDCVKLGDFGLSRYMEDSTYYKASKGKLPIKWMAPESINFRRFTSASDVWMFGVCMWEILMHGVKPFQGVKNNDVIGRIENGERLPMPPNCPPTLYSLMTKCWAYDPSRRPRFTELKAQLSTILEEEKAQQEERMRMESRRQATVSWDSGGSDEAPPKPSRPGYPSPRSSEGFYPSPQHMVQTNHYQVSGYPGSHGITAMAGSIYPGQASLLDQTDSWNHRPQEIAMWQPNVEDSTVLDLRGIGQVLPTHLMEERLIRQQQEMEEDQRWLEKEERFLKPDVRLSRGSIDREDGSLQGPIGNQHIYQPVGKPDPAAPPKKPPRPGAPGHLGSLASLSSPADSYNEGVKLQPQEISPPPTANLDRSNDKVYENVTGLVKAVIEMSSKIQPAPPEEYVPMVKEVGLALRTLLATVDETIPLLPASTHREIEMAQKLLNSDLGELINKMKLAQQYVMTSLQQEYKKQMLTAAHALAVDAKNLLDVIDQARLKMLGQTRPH
Description: as §1

ALK = ALK (Homo sapiens, UniProt Q9UM73); assay: Degradation assay; type: cell-based; settings: average of duplicate measurements
Description: as §1

[2] = Pharmacokinetics study in Sprague–Dawley rats; type: in vivo; settings: rat, 0.5 mg/kg iv
CAMK2D = CAMK2D (Homo sapiens, UniProt Q13557); assay: Kinase assay; type: biochemical; settings: average of duplicate measurements
Sequence of CAMK2D (Q13557 whole entry, species assumed): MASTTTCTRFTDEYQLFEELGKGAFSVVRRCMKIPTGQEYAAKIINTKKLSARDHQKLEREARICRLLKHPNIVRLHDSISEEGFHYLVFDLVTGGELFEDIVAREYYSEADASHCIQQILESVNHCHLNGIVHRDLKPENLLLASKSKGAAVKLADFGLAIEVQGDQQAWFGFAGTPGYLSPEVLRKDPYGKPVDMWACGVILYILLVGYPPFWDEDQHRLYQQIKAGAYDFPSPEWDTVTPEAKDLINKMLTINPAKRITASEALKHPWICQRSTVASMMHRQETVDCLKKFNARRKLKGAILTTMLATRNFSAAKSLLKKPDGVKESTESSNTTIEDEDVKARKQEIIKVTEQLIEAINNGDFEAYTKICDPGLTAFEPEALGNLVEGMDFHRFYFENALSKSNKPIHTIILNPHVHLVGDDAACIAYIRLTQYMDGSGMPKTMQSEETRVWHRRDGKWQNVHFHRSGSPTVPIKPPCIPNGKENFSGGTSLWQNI

INSRR = INSRR (Homo sapiens, UniProt P14616); assay: Kinase assay; type: biochemical; settings: average of duplicate measurements
CHEK2 = CHEK2 (Homo sapiens, UniProt O96017); assay: Kinase assay; type: biochemical; settings: average of duplicate measurements
Sequence of CHEK2 (O96017 whole entry, species assumed): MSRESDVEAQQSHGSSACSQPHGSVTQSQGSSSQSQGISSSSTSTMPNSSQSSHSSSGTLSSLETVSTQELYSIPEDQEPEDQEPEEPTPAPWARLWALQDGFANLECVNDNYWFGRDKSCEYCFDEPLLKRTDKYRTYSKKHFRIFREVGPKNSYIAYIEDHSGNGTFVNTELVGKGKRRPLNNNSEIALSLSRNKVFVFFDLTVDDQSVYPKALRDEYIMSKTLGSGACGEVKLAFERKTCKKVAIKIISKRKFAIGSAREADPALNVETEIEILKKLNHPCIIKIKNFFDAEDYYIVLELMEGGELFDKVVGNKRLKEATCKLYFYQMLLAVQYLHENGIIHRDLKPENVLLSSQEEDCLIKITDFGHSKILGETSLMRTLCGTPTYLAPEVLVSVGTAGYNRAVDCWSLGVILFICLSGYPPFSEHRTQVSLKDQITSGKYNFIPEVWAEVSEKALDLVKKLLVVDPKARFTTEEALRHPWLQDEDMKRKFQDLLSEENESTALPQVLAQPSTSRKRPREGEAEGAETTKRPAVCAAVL

ERBB4/HER4 = ERBB4/HER4 (Homo sapiens, UniProt Q15303); assay: Kinase assay; type: biochemical; settings: average of duplicate measurements
Sequence of ERBB4/HER4 (Q15303 26-1308): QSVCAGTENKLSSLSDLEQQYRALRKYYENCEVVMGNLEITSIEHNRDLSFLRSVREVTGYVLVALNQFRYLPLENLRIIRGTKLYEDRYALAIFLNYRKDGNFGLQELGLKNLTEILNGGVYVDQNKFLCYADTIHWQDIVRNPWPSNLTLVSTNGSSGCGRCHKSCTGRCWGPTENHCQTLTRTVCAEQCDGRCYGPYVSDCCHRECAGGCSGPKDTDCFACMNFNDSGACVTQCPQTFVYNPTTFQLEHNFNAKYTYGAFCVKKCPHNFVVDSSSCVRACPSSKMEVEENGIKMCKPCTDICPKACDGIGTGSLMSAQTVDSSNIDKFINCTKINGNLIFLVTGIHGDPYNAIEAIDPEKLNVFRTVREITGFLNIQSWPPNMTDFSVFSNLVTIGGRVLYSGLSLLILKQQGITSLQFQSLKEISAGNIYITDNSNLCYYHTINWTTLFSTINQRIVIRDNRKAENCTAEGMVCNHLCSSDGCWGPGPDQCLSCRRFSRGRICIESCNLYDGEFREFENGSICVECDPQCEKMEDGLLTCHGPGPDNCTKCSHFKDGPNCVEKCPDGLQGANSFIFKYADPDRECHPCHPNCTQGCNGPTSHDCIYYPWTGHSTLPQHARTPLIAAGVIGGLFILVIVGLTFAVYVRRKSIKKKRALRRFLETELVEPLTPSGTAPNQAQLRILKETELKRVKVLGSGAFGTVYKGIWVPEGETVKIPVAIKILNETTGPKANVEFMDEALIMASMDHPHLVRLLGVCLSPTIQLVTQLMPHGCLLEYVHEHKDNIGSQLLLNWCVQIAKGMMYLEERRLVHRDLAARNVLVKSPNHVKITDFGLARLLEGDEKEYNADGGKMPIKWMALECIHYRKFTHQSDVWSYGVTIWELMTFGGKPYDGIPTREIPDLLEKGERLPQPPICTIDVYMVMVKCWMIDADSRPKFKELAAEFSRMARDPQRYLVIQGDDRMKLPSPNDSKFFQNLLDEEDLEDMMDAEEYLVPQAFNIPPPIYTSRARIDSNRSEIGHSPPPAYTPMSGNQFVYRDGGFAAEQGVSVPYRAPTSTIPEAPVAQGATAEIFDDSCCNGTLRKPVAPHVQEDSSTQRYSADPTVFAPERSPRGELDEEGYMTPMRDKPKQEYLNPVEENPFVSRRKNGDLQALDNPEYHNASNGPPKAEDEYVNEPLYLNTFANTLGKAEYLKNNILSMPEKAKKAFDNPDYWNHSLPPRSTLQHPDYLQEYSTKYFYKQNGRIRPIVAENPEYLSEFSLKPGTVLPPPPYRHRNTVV

C-MET = C-MET (Homo sapiens, UniProt P08581); assay: Kinase assay; type: biochemical; settings: average of duplicate measurements
FAK/PTK2 [3] = molecular target: T1, FAK/PTK2; assay: Kinase assay; type: biochemical; settings: average of duplicate measurements
[4] = Metabolic stability in rat microsomes; type: in vitro ADME; settings: rat, pooled rat microsomes, pH 7.4, 250 nM compound, NADPH, 37 °C
Description: (§2) Pooled human and rat microsomes were prepared and stored at −80 °C prior to use. A master-mix containing microsome, phosphate buffer, and test compound (9 series) solution was made as follows: (1) 3 μL of microsome (20 mg/mL) was diluted with mixed 30 μL of potassium phosphate buffer (pH 7.4; 10×) and 246 μL of water; (2) 3 μL of 25 μM drug solution was added to the microsome; (3) the master solution was prewarmed at 37 °C for 5 min. NADPH solution A (15 μL) and NADPH solution B (3 μL) from Promega were added to the above-mentioned master solution to initiate the reaction. The final concentration of 9 compounds in the reaction system was 250 nM. An aliquot of 20 μL was pipetted from the reaction solution and stopped by the addition of 180 μL of cold MeCN containing 25 ng of Tamoxifen-(N,N-dimethyl-13C2)-15N as an internal standard at the designated time points (0, 5, 15, 30, 45, and 60 min). The incubation solution was vortexed-mixed (800 rpm/10 min) and centrifuged at 3500 rpm for 10 min to precipitate proteins. The supernatant was collected and used for the LC/MS/MS analysis. The natural log of the remaining percentage of the test compound was plotted against time and the gradient of the line was determined.

ERBB2 = ERBB2 (Homo sapiens, UniProt P04626); assay: Kinase assay; type: biochemical; settings: average of duplicate measurements
Sequence of ERBB2 (P04626 23-1255, species assumed): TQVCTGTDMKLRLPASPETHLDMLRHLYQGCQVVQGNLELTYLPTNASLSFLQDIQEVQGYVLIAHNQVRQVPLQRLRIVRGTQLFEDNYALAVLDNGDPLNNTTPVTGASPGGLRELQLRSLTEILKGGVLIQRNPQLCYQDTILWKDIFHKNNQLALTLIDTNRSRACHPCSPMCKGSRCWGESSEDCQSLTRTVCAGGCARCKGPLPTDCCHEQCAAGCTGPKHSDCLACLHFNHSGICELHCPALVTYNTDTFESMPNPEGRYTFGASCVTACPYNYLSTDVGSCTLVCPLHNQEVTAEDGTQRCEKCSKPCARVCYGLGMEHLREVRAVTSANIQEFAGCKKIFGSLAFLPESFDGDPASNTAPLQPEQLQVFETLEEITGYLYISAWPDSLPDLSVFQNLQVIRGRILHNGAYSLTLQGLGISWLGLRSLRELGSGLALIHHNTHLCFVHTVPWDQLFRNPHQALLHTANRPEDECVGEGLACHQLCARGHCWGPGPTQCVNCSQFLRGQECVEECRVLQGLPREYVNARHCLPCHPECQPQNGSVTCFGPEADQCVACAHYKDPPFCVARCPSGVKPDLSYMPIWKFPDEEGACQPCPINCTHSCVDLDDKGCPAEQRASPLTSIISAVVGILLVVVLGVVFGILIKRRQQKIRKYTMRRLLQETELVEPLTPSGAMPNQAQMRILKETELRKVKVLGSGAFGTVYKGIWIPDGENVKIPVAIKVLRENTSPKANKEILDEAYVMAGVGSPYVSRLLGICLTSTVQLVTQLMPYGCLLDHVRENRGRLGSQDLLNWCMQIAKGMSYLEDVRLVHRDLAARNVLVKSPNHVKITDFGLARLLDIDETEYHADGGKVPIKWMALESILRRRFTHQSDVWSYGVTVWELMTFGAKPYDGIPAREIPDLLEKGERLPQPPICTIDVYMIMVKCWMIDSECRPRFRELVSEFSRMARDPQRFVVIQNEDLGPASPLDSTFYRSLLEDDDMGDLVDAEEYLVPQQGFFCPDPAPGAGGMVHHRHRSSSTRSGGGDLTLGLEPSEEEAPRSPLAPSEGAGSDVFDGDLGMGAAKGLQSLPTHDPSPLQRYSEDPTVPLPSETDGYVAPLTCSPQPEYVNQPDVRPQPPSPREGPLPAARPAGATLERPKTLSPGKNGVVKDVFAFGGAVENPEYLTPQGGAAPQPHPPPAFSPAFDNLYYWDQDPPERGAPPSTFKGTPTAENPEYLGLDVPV

BRK (PTK6) = BRK (PTK6) (Homo sapiens, UniProt Q13882); assay: Kinase assay; type: biochemical; settings: average of duplicate measurements
Sequence of BRK (PTK6) (Q13882 whole entry, species assumed): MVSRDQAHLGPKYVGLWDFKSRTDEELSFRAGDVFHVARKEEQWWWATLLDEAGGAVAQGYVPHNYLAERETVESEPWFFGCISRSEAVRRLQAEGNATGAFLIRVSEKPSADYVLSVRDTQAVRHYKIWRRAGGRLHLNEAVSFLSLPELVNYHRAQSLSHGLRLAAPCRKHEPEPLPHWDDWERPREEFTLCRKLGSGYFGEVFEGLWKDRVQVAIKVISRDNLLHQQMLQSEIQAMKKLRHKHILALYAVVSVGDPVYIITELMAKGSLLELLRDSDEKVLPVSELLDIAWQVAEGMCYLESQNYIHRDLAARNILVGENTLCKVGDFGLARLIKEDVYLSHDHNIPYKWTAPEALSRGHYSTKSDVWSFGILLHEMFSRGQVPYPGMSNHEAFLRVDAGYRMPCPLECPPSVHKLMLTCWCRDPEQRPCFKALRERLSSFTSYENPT

[5] = Metabolic stability in human microsomes; type: in vitro ADME; settings: human, pooled human microsomes, pH 7.4, 250 nM compound, NADPH, 37 °C
Description: as §2

NUAK1 = NUAK1 (Homo sapiens, UniProt O60285); assay: Kinase assay; type: biochemical; settings: average of duplicate measurements
[6] = tested on: Ba/F3 SLC34A2-ROS1 G2032R xenograft tumors; assay: Mouse efficacy study, Ba/F3 SLC34A2-ROS1 G2032R xenograft; type: in vivo; settings: NOD/SCID mice
Description: All the procedures related to animal handling, care, and treatment in this study were performed according to guidelines approved by the Institutional Animal Care and Use Committee (IACUC) of Xavier University of Louisiana following the guidance of the AAALAC. Ba/F3-ROS1 and Ba/F3-ROS1-G2032R cells were maintained in RPMI 1640 medium supplemented with 10% fetal bovine serum. The cells growing in an exponential growth phase were harvested and counted for tumor inoculation. Female NOD/SCID mice 6–8 weeks of age were allowed to adapt to laboratory conditions for 10 days prior to dosing and were allowed food and water ad libitum. Each mouse was inoculated subcutaneously in the right flank with Ba/F3 CD74-ROS1 or Ba/F3 SL34A2-ROS1 G2032R cells (1 × 10^6) in 0.2 mL of PBS mixed with Matrigel (50:50) for tumor development.

Log P measurement = type: physicochemical
From the text: An important physicochemical property for a PROTAC molecule is its lipophilicity that largely dictates its pharmaceutical performance such as absorption, permeability, and distribution.

With `COc1cc(N2CCC(N3CCN(CC4CCN(c5ccc6c(c5)CN(C5CCC(=O)NC5=O)C6=O)CC4)CC3)CC2)ccc1Nc1ncc(Cl)c(Nc2ccccc2P(C)(C)=O)n1` (stereo not shown) [9o, 3-(5-(4-((4-(1-(4-((5-Chloro-4-((2-(dimethylphosphoryl)phenyl)amino)pyrimidin-2-yl)amino)-3-methoxyphenyl)piperidin-4-yl)piperazin-1-yl)methyl)piperidin-1-yl)-1-oxoisoindolin-2-yl)piperidine-2,6-dione] the pIC50 (ROS1 (L2086F)) was 6.66, the DC50 (EGFR) was 255 nM and the DC50 (FES) was 320 nM. For the same compound, the DC50 (FAK/PTK2 [1]) was 1.5 nM, the DC50 (ALK) was 1.7 nM and the “AUC (iv)” value [2] was 1736 ng·h/mL. The pIC50 (CAMK2D) was 7.41, the pIC50 (INSRR) was 7.35 and the pIC50 (CHEK2) was > 8.00 and 8.44. For the same compound, the pIC50 (ERBB4/HER4) was 7.57, the pIC50 (C-MET) was 7.02 and the pIC50 (FAK/PTK2 [3]) was 8.62. It also gave a microsomal CLint at 1 h, 0.25 µM [4] of 17.4 µL/min/mg, a half-life at 1 h, 0.25 µM ([4]; read-out: metabolic stability in rat microsomes T1/2) of 1.33 h and a pIC50 (ERBB2) of 7.38. It also gave a pIC50 (BRK (PTK6)) of 7.12, a microsomal CLint at 1 h, 0.25 µM [5] of 71.1 µL/min/mg and a half-life at 1 h, 0.25 µM ([5]; read-out: metabolic stability in human microsomes T1/2) of 0.813 h. The pIC50 (NUAK1) was 7.33, the “TGI (tumor growth inhibition)” value ([6]; 10 mg/kg PO qd) was 33% and the “TGI (tumor growth inhibition)” value ([6]; 30 mg/kg PO qd) was 78%. For the same compound, the logP (Log P measurement) was 2.54.
